The text below walks through data of PMC11995078, “Protocol for high-throughput screening of SIRT7 inhibitors using fluorescent peptide technology” (STAR Protocols, 2025).

The experiment has as its target T1, Sirtuin 7 (SIRT7) (Homo sapiens, UniProt Q9NRC8).
T1 construct: his-tagged full length SIRT7 (pET-28a, E. coli BL21(DE3))
T1 sequence (Q9NRC8 1-400): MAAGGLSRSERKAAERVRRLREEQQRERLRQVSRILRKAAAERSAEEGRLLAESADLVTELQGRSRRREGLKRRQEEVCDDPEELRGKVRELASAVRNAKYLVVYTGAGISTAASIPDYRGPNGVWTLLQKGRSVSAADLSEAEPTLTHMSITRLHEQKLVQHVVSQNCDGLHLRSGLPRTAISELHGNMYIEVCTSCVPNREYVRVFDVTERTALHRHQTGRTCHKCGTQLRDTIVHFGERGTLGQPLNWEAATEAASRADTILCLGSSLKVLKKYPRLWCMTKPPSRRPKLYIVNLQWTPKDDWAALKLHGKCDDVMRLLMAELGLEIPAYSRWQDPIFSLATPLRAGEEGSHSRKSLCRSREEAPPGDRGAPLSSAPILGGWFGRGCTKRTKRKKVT
The experiment is described as follows: fluorescent MCA-peptide (H3K18) deacylation assay with purified SIRT7, dose-response. The class given is biochemical.

What is called IC50 is the midpoint of a concentration-inhibition curve. Low readings indicate inhibition by little substance, high ones a need for much substance. On to `COC(=O)/C(=C\C(=O)c1ccc(O)c(O)c1)c1ccc(O)c(O)c1` [YZL-51N], for which the IC50 worked out at 12.7 µM.
